From US8293917B2, “Pyrazole compounds as CCR1 antagonists” (Boehringer Ingelheim International GmbH, priority 2008, dated 2012)

Target: T1, CCR1 (Homo sapiens, UniProt P32246)
T1 construct: host or cells: non-adherent cells
T1 sequence (P32246 1-355): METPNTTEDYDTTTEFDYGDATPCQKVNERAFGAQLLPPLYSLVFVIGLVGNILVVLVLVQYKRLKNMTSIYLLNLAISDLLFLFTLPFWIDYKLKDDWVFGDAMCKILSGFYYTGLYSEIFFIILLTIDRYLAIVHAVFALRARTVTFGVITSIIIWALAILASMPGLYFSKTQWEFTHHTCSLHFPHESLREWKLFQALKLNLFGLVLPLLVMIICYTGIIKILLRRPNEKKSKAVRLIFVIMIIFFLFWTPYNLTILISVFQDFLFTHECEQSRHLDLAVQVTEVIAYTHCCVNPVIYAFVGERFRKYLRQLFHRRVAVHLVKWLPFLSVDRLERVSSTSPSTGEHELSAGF
Test: functional cellular assay measuring calcium flux in response to MIP1α in CCR1-transfected cells (Method A or Method B)
Assay type: cell-based
Settings: cells stably expressing recombinant CCR1 and G-alpha-16; MIP-1alpha added at EC80; method (A: FLIPR TETRA, B: FDSS6000) not stated per compound
Protocol: Compounds are assessed for the ability to block the interaction of CCR1 and its ligands in a functional cellular assay measuring calcium flux in response to MIP1α in CCR1-transfected cells.
Method A: Non-adherent cells purchased from Chemicon Corporation (HTS005C), stably expressing recombinant CCR1 and G-alpha-16 are grown in RPMI 1640 medium (Mediatech 10-080-CM) supplemented with 10% heat-inactivated FBS, 0.4 mg/mL Geneticin and penicillin/streptomycin. On the day of the assay, the cells are transferred to a beaker and dye-loaded in bulk using a Fluo-4 NW Calcium Assay Kit with probenecid (Invitrogen F36205) at 0.8E6 cells/mL for 1 hour at room temperature. After 1 hour, they are seeded in a 384-well tissue culture-treated plate at a density of 20,000 cells/well. Appropriately diluted test compound is added to the well to achieve a top concentration of 3,000 nM (diluted 3-fold with 10 doses total). The final concentration of DMSO is 1%. The buffer is HBSS (Invitrogen 14025) with 20 mM HEPES at pH 7.4. The cells are allowed to incubate 1 hour in the dark at room temperature. The plates are transferred to the FLIPR TETRA where MIP-1alpha in 1% BSA is added at the EC80 final concentration. Wells +/−MIP-1alpha containing diluted DMSO instead of compound serve as the controls. Intracellular calcium flux is recorded on the FLIPR TETRA, using excitation at 470/495 nm and emission at 515/575 nm. Data are analyzed using Activity Base software.
Method B: Non-adherent cells purchased from Chemicon Corporation (HTS005C), stably expressing recombinant CCR1 and G-alpha-16 are grown in RPMI 1640 medium (Mediatech 10-080-CM) supplemented with 10% FBS, 0.4 mg/mL Geneticin and penicillin/streptomycin. On the day of the assay, the cells are loaded with Calcium 4 dye (Molecular Devices R7448) with Probenecid (Invitrogen P346400) at 8E5 cells/mL for 1 hour at room temperature. After 1 hour, they are seeded in a 384-well tissue culture-treated plate at a density of 20,000 cells/well. Appropriately diluted test compound is added to the well to achieve a top concentration of 3,000 nM (diluted 4-fold with 10 doses total). The final concentration of DMSO is 1%. The buffer is HBSS (Invitrogen 14025) with 20 mM HEPES at pH 7.4. The cells incubate 30 minutes at 37 C and then 30 minutes at room temperature. The plates are transferred to the HAMAMATSU FDSS6000 where MIP-1alpha in 1% BSA is added at the EC80 final concentration. All plates must be read within 4 hours of the start of dye-loading. Wells +/−MIP-1alpha containing diluted DMSO instead of compound serve as the controls. Data are analyzed using Activity Base software.

SMILES	IC50
CCCC(NC(=O)c1cnn(-c2ccc(Cl)c(F)c2)c1C)c1cncc(S(C)(=O)=O)c1 (stereo not shown) [1-(4-Chloro-3-fluoro-phenyl)-5-methyl-1H-pyrazole-4-carboxylic acid [1-(5-methanesulfonyl-pyridin-3-yl)-butyl]-amide]	0.037 µM
CC[C@H](NC(=O)c1cnn(-c2ccc(Cl)cc2)c1C)c1ccnc(S(=O)(=O)NC)c1 [1-(4-Chloro-phenyl)-5-methyl-1H-pyrazole-4-carboxylic acid [(S)-1-(2-methylsulfamoyl-pyridin-4-yl)-propyl]-amide]	0.019 µM
CCCC(NC(=O)c1cnn(-c2ccc(Cl)c(Cl)c2)c1C)c1ccnc(S(C)(=O)=O)c1 (stereo not shown) [1-(3,4-Dichloro-phenyl)-5-methyl-1H-pyrazole-4-carboxylic acid [1-(2-methanesulfonyl-pyridin-4-yl)-butyl]-amide]	0.0003 µM
Cc1c(C(=O)N[C@@H](C)c2cccc3ccccc23)cnn1-c1ccc(Cl)c(Cl)c1 [1-(3,4-Dichloro-phenyl)-5-methyl-1H-pyrazole-4-carboxylic acid ((S)-1-naphthalen-1-yl-ethyl)-amide]	0.054 µM
CCCC(NC(=O)c1cnn(-c2ccc(F)c(Cl)c2)c1C)c1cncc(S(C)(=O)=O)c1 (stereo not shown) [1-(3-Chloro-4-fluoro-phenyl)-5-methyl-1H-pyrazole-4-carboxylic acid [1-(5-methanesulfonyl-pyridin-3-yl)-butyl]-amide]	0.0059 µM
CCCC(NC(=O)c1cnn(-c2ccc(F)c(Cl)c2)c1C)c1ccc(S(C)(=O)=O)nc1 (stereo not shown) [1-(3-Chloro-4-fluoro-phenyl)-5-methyl-1H-pyrazole-4-carboxylic acid [1-(6-methanesulfonyl-pyridin-3-yl)-butyl]-amide]	0.071 µM
CCCC(NC(=O)c1cnn(-c2ccc(Cl)c(F)c2)c1C)c1ccc(S(C)(=O)=O)nc1 (stereo not shown) [1-(4-Chloro-3-fluoro-phenyl)-5-methyl-1H-pyrazole-4-carboxylic acid [1-(6-methanesulfonyl-pyridin-3-yl)-butyl]-amide]	0.091 µM
C=CCC[C@H](NC(=O)c1cnn(-c2ccc(Cl)c(Cl)c2)c1C)c1cccc(Br)c1 [1-(3,4-Dichloro-phenyl)-5-methyl-1H-pyrazole-4-carboxylic acid [(S)-1-(3-bromo-phenyl)-pent-4-enyl]-amide]	0.041 µM
CCC[C@H](NC(=O)c1cnn(-c2ccc(Cl)cc2)c1CNC)c1cccc(C(F)(F)F)c1 [1-(4-Chloro-phenyl)-5-methylaminomethyl-1H-pyrazole-4-carboxylic acid [(S)-1-(3-trifluoromethyl-phenyl)-butyl]-amide]	0.098 µM
CCC[C@H](NC(=O)c1cnn(-c2ccc(Cl)cc2)c1CO)c1cccc(Br)c1 [1-(4-Chloro-phenyl)-5-hydroxymethyl-1H-pyrazole-4-carboxylic acid [(S)-1-(3-bromo-phenyl)-butyl]-amide]	0.016 µM
CCCC(NC(=O)c1cnn(-c2ccc(Cl)cc2)c1C)c1ccc(S(=O)(=O)NC2CCOCC2)nc1 (stereo not shown) [1-(4-Chloro-phenyl)-5-methyl-1H-pyrazole-4-carboxylic acid {1-[6-(tetrahydro-pyran-4-ylsulfamoyl)-pyridin-3-yl]-butyl}-amide]	0.041 µM
Cc1c(C(=O)N[C@@H](C)c2ccc(F)c(C(F)(F)F)c2)cnn1-c1ccc(Cl)c(Cl)c1 [1-(3,4-Dichloro-phenyl)-5-methyl-1H-pyrazole-4-carboxylic acid [(S)-1-(4-fluoro-3-trifluoromethyl-phenyl)-ethyl]-amide]	0.028 µM
CCCC(NC(=O)c1cnn(-c2ccc(Cl)c(Cl)c2)c1C)c1ccc(S(C)(=O)=O)nc1 (stereo not shown) [1-(3,4-Dichloro-phenyl)-5-methyl-1H-pyrazole-4-carboxylic acid [1-(6-methanesulfonyl-pyridin-3-yl)-butyl]-amide]	0.0053 µM
CCCC(NC(=O)c1cnn(-c2ccc(Cl)c(Cl)c2)c1C)c1ccnc(Br)c1 (stereo not shown) [1-(3,4-Dichloro-phenyl)-5-methyl-1H-pyrazole-4-carboxylic acid [1-(2-bromo-pyridin-4-yl)-butyl]-amide]	0.0006 µM
CCCC(NC(=O)c1cnn(-c2ccc(Cl)cc2)c1C)c1cncc(Br)c1 (stereo not shown) [1-(4-Chloro-phenyl)-5-methyl-1H-pyrazole-4-carboxylic acid [1-(5-bromo-pyridin-3-yl)-butyl]-amide]	0.0041 µM
CCCC(NC(=O)c1cnn(-c2ccc(Cl)cc2)c1C)c1cncc(S(=O)(=O)C2CC2)c1 (stereo not shown) [1-(4-Chloro-phenyl)-5-methyl-1H-pyrazole-4-carboxylic acid [1-(5-cyclopropanesulfonyl-pyridin-3-yl)-butyl]-amide]	0.085 µM
CCCC(NC(=O)c1cnn(-c2ccc(Cl)cc2)c1C)c1cncc(S(=O)(=O)C(C)C)c1 (stereo not shown) [1-(4-Chloro-phenyl)-5-methyl-1H-pyrazole-4-carboxylic acid {1-[5-(propane-2-sulfonyl)-pyridin-3-yl]-butyl}-amide]	0.072 µM
CCCC(NC(=O)c1cnn(-c2ccc(Cl)cc2)c1C)c1ccc(S(=O)(=O)CCCO)nc1 (stereo not shown) [1-(4-Chloro-phenyl)-5-methyl-1H-pyrazole-4-carboxylic acid {1-[6-(3-hydroxy-propane-1-sulfonyl)-pyridin-3-yl]-butyl}-amide]	0.086 µM
CCC[C@H](NC(=O)c1cnn(-c2ccc(Cl)cc2)c1CN)c1cccc(C(F)(F)F)c1 [5-Aminomethyl-1-(4-chloro-phenyl)-1H-pyrazole-4-carboxylic acid [(S)-1-(3-trifluoromethyl-phenyl)-butyl]-amide]	0.012 µM
CCCC(NC(=O)c1cnn(-c2ccc(Cl)cc2)c1C)c1cncc(S(=O)(=O)CC)c1 (stereo not shown) [1-(4-Chloro-phenyl)-5-methyl-1H-pyrazole-4-carboxylic acid [1-(5-ethanesulfonyl-pyridin-3-yl)-butyl]-amide]	0.094 µM
CCCC(NC(=O)c1cnn(-c2ccc(Cl)cc2)c1C)c1ccnc(S(=O)(=O)N(C)C)c1 (stereo not shown) [1-(4-Chloro-phenyl)-5-methyl-1H-pyrazole-4-carboxylic acid [1-(2-dimethylsulfamoyl-pyridin-4-yl)-butyl]-amide]	0.0045 µM
CCCC(NC(=O)c1cnn(-c2ccc(Cl)cc2)c1C)c1ccnc(Br)c1 (stereo not shown) [1-(4-Chloro-phenyl)-5-methyl-1H-pyrazole-4-carboxylic acid [1-(2-bromo-pyridin-4-yl)-butyl]-amide]	0.0011 µM
